# Assays:
# Assay type in all cases: in vivo
# Set-up in all cases: key: 0 is no effect; 10 is complete control
# [1] = tested on: morningglory (Ipomoea spp.); assay: Test A pre-/postemergence; conditions: 0 to 10 scale
# Description: (§1) Seeds of barnyardgrass (Echinochloa crus-galli), crabgrass (Digitaria spp.), morningglory (Ipomoea spp.), and velvetleaf (Abutilon theophrasti) were planted into a sandy loam soil and treated preemergence by soil drench with test chemicals formulated in a non-phytotoxic solvent mixture which includes a surfactant. At the same time, these crop and weed species were also treated postemergence sprayed to runoff, with test chemicals formulated in the same manner. Plants ranged in height from two to eighteen cm and were in the one to two leaf stage for the postemergence treatment. Treated plants and untreated controls were maintained in a greenhouse for approximately eleven days, after which all treated plants were compared to untreated controls and visually evaluated for injury. Plant response ratings, summarized in Table A, are based on a 0 to 10 scale where 0 is no effect and 10 is complete control. A dash (−) response means no test results.
# [2] = tested on: velvetleaf (Abutilon theophrasti); assay: Test A pre-/postemergence; conditions: 0 to 10 scale
# Description: as §1
# [3] = tested on: barnyardgrass (Echinochloa crus-galli); assay: Test A pre-/postemergence; conditions: 0 to 10 scale
# Description: as §1
# [4] = tested on: crabgrass (Digitaria spp.); assay: Test A pre-/postemergence; conditions: 0 to 10 scale
# Description: as §1
# [5] = tested on: sugar beet (Beta vulgaris); assay: Test B pre-/postemergence
# Outline: (§2)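 Compounds in a surfactant-containing, non-phytotoxic solvent blend are applied to freshly planted seed (preemergence) and, concurrently, to seedlings of 2 to 18 cm at 1–4 leaves (postemergence). Plants stay in the greenhouse twelve to sixteen days and are then scored visually from 0 (no effect) to 10 (complete control).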
# [6] = tested on: purple nutsedge (Cyperus rotundus); assay: Test B pre-/postemergence
# Outline: as §2
# [7] = tested on: velvetleaf (Abutilon theophrasti); assay: Test B pre-/postemergence
# Outline: as §2
# soybean (Glycine max) = assay: Test B pre-/postemergence
# Outline: as §2
# corn (Zea mays) = assay: Test B pre-/postemergence
# Outline: as §2
# [8] = tested on: bedstraw (Galium aparine); assay: Test B pre-/postemergence
# Outline: as §2
# rape (Brassica napus) = assay: Test B pre-/postemergence
# Outline: as §2
# [9] = tested on: giant foxtail (Setaria faberii); assay: Test B pre-/postemergence
# Outline: as §2
# [10] = tested on: broadleaf signalgrass (Brachiaria decumbens); assay: Test B pre-/postemergence
# Outline: as §2
# [11] = tested on: wheat (Triticum aestivum); assay: Test B pre-/postemergence
# Outline: as §2
# [12] = tested on: blackgrass (Alopecurus myosuroides); assay: Test B pre-/postemergence
# Outline: as §2
# [13] = tested on: momingglory (Ipomoea hederacea); assay: Test B pre-/postemergence
# Outline: as §2
# [14] = tested on: pigweed (Amaranthus retroflexus); assay: Test B pre-/postemergence
# Outline: as §2
# [15] = tested on: cocklebur (Xanthium strumarium); assay: Test B pre-/postemergence
# Outline: as §2
# wild oat (Avena fatua) = assay: Test B pre-/postemergence
# Outline: as §2
# [16] = tested on: crabgrass (Digitaria sanguinalis); assay: Test B pre-/postemergence
# Outline: as §2
# rice (Oryza sativa) = assay: Test B flood test
# Outline: (§3)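 Read-out is a visual response score from 0 (no effect) to 10 (complete control), assigned by comparison with untreated controls. Treatment was applied at the 2-leaf stage, and plants stayed in the greenhouse for twelve to sixteen days before scoring.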
# [17] = tested on: smallflower flatsedge (Cyperus difformis); assay: Test B flood test
# Outline: as §3
# [18] = tested on: duck salad (Heteranthera limosa); assay: Test B flood test
# Outline: as §3
# [19] = tested on: bamyardgrass (Echinochloa crus-galli); assay: Test B flood test
# Outline: as §3
# [20] = PRE SOIL DRENCH, Rate 1000 g/ha
# [21] = PRE SOIL DRENCH, Rate 2000 g/ha
# [22] = postemergence SPRAYED TO RUNOFF, Rate 500 g/ha
# [23] = postemergence SPRAYED TO RUNOFF, Rate 1000 g/ha
# [24] = Preemergence, Rate 62 g/ha, scale of 0 to 10
# [25] = Rate 62 g/ha, Postemergence (flood test)
# [26] = Rate 125 g/ha, Postemergence section (flood test species)
# [27] = Rate 250 g/ha, Postemergence (flood test species)
smiles,measurement,setting,value
Cc1cnc(-c2ccccc2)nc1Cn1cnc(C(F)(F)F)c1 [Compound 8],"Plant response rating, Morningglory",[1]; [20],9
same,"Plant response rating, Morningglory",[1]; [21],8
same,"Plant response rating, Morningglory",[1]; [22],3
same,"Plant response rating, Morningglory",[1]; [23],7
same,"Plant response rating, Velvetleaf",[2]; [20],2
same,"Plant response rating, Velvetleaf",[2]; [21],3
same,"Plant response rating, Velvetleaf",[2]; [22],1
same,"Plant response rating, Velvetleaf",[2]; [23],2
same,"Plant response rating, Barnyardgrass",[3]; [20],4
same,"Plant response rating, Barnyardgrass",[3]; [21],7
same,"Plant response rating, Barnyardgrass",[3]; [22],3
same,"Plant response rating, Barnyardgrass",[3]; [23],3
same,"Plant response rating, Crabgrass",[4]; [20],9
same,"Plant response rating, Crabgrass",[4]; [21],10
same,"Plant response rating, Crabgrass",[4]; [22],8
same,"Plant response rating, Crabgrass",[4]; [23],5
N#Cc1ccc(-c2nccc(C(=O)c3cccc(C(F)(F)F)c3)n2)cc1 [Compound 78],"Plant response rating, Sugarbeets",[5]; [24],0
same,Sugarbeets plant response rating,"[5]; Rate 62 g/ha, Postemergence",0
same,Sugarbeets plant response rating,"[5]; Rate 125 g/ha, Postemergence",0
same,"Plant response rating, Sugarbeets","[5]; Rate 125 g/ha, Preemergence",0
same,"Plant response rating, Sugarbeets","[5]; Rate 250 g/ha, Postemergence",0
same,"Plant response rating, Sugarbeets","[5]; Rate 250 g/ha, Preemergence",0
same,"Plant response rating, Nutsedge",[6]; [24],0
same,Nutsedge plant response rating,"[6]; Rate 62 g/ha, Postemergence",0
same,Nutsedge plant response rating,"[6]; Rate 125 g/ha, Postemergence",0
same,"Plant response rating, Nutsedge","[6]; Rate 125 g/ha, Preemergence",0
same,"Plant response rating, Nutsedge","[6]; Rate 250 g/ha, Postemergence",0
same,"Plant response rating, Nutsedge","[6]; Rate 250 g/ha, Preemergence",0
same,"Plant response rating, Velvetleaf",[7]; [24],0
same,Velvetleaf plant response rating,"[7]; Rate 62 g/ha, Postemergence",0
same,Velvetleaf plant response rating,"[7]; Rate 125 g/ha, Postemergence",0
same,"Plant response rating, Velvetleaf","[7]; Rate 125 g/ha, Preemergence",0
same,"Plant response rating, Velvetleaf","[7]; Rate 250 g/ha, Postemergence",0
same,"Plant response rating, Velvetleaf","[7]; Rate 250 g/ha, Preemergence",0
same,"Plant response rating, Soybean",soybean (Glycine max); [24],0
same,Soybean plant response rating,"soybean (Glycine max); Rate 62 g/ha, Postemergence",0
same,Soybean plant response rating,"soybean (Glycine max); Rate 125 g/ha, Postemergence",0
same,"Plant response rating, Soybean","soybean (Glycine max); Rate 125 g/ha, Preemergence",0
same,"Plant response rating, Soybean","soybean (Glycine max); Rate 250 g/ha, Postemergence",0
same,"Plant response rating, Soybean","soybean (Glycine max); Rate 250 g/ha, Preemergence",0
same,"Plant response rating, Corn",corn (Zea mays); [24],0
same,Corn plant response rating,"corn (Zea mays); Rate 62 g/ha, Postemergence",0
same,Corn plant response rating,"corn (Zea mays); Rate 125 g/ha, Postemergence",0
same,"Plant response rating, Corn","corn (Zea mays); Rate 125 g/ha, Preemergence",0
same,"Plant response rating, Corn","corn (Zea mays); Rate 250 g/ha, Postemergence",2
same,"Plant response rating, Corn","corn (Zea mays); Rate 250 g/ha, Preemergence",0
same,"Plant response rating, Bedstraw",[8]; [24],0
same,Bedstraw plant response rating,"[8]; Rate 62 g/ha, Postemergence",0
same,Bedstraw plant response rating,"[8]; Rate 125 g/ha, Postemergence",0
same,"Plant response rating, Bedstraw","[8]; Rate 125 g/ha, Preemergence",0
same,"Plant response rating, Bedstraw","[8]; Rate 250 g/ha, Postemergence",0
same,"Plant response rating, Bedstraw","[8]; Rate 250 g/ha, Preemergence",0
same,"Plant response rating, Rape",rape (Brassica napus); [24],0
same,Rape plant response rating,"rape (Brassica napus); Rate 62 g/ha, Postemergence",0
same,Rape plant response rating,"rape (Brassica napus); Rate 125 g/ha, Postemergence",0
same,"Plant response rating, Rape","rape (Brassica napus); Rate 125 g/ha, Preemergence",0
same,"Plant response rating, Rape","rape (Brassica napus); Rate 250 g/ha, Postemergence",0
same,"Plant response rating, Rape","rape (Brassica napus); Rate 250 g/ha, Preemergence",0
same,"Plant response rating, Giant foxtail",[9]; [24],0
same,Giant foxtail plant response rating,"[9]; Rate 62 g/ha, Postemergence",0
same,Giant foxtail plant response rating,"[9]; Rate 125 g/ha, Postemergence",0
same,"Plant response rating, Giant foxtail","[9]; Rate 125 g/ha, Preemergence",0
same,"Plant response rating, Giant foxtail","[9]; Rate 250 g/ha, Postemergence",0
same,"Plant response rating, Giant foxtail","[9]; Rate 250 g/ha, Preemergence",0
same,B. signalgrass plant response rating,"[10]; Rate 62 g/ha, Postemergence",0
same,B. signalgrass plant response rating,"[10]; Rate 62 g/ha, Preemergence",0
same,B. signalgrass plant response rating,"[10]; Rate 125 g/ha, Postemergence",0
same,"Plant response rating, B. signalgrass","[10]; Rate 125 g/ha, Preemergence",0
same,"Plant response rating, B. signalgrass","[10]; Rate 250 g/ha, Postemergence",1
same,"Plant response rating, B. signalgrass","[10]; Rate 250 g/ha, Preemergence",0
same,"Plant response rating, Wheat",[11]; [24],0
same,Wheat plant response rating,"[11]; Rate 62 g/ha, Postemergence",0
same,Wheat plant response rating,"[11]; Rate 125 g/ha, Postemergence",0
same,"Plant response rating, Wheat","[11]; Rate 125 g/ha, Preemergence",0
same,"Plant response rating, Wheat","[11]; Rate 250 g/ha, Postemergence",0
same,"Plant response rating, Wheat","[11]; Rate 250 g/ha, Preemergence",0
same,"Plant response rating, Blackgrass",[12]; [24],0
same,Blackgrass plant response rating,"[12]; Rate 62 g/ha, Postemergence",0
same,Blackgrass plant response rating,"[12]; Rate 125 g/ha, Postemergence",0
same,"Plant response rating, Blackgrass","[12]; Rate 125 g/ha, Preemergence",0
same,"Plant response rating, Blackgrass","[12]; Rate 250 g/ha, Postemergence",1
same,"Plant response rating, Blackgrass","[12]; Rate 250 g/ha, Preemergence",0
same,"Plant response rating, Morningglory",[13]; [24],0
same,Morningglory plant response rating,"[13]; Rate 62 g/ha, Postemergence",0
same,Morningglory plant response rating,"[13]; Rate 125 g/ha, Postemergence",0
same,"Plant response rating, Morningglory","[13]; Rate 125 g/ha, Preemergence",0
same,"Plant response rating, Morningglory","[13]; Rate 250 g/ha, Postemergence",2
same,"Plant response rating, Morningglory","[13]; Rate 250 g/ha, Preemergence",0
same,"Plant response rating, Redroot pigweed",[14]; [24],0
same,Redroot pigweed plant response rating,"[14]; Rate 62 g/ha, Postemergence",0
same,Redroot pigweed plant response rating,"[14]; Rate 125 g/ha, Postemergence",0
same,"Plant response rating, Redroot pigweed","[14]; Rate 125 g/ha, Preemergence",0
same,"Plant response rating, Redroot pigweed","[14]; Rate 250 g/ha, Postemergence",4
same,"Plant response rating, Redroot pigweed","[14]; Rate 250 g/ha, Preemergence",0
same,"Plant response rating, Cocklebur",[15]; [24],0
same,Cocklebur plant response rating,"[15]; Rate 62 g/ha, Postemergence",0
same,Cocklebur plant response rating,"[15]; Rate 125 g/ha, Postemergence",0
same,"Plant response rating, Cocklebur","[15]; Rate 125 g/ha, Preemergence",0
same,"Plant response rating, Cocklebur","[15]; Rate 250 g/ha, Postemergence",0
same,"Plant response rating, Cocklebur","[15]; Rate 250 g/ha, Preemergence",0
same,"Plant response rating, Wild oats",wild oat (Avena fatua); [24],0
same,Wild oats plant response rating,"wild oat (Avena fatua); Rate 62 g/ha, Postemergence",0
same,Wild oats plant response rating,"wild oat (Avena fatua); Rate 125 g/ha, Postemergence",0
same,"Plant response rating, Wild oats","wild oat (Avena fatua); Rate 125 g/ha, Preemergence",0
same,"Plant response rating, Wild oats","wild oat (Avena fatua); Rate 250 g/ha, Postemergence",0
same,"Plant response rating, Wild oats","wild oat (Avena fatua); Rate 250 g/ha, Preemergence",0
same,"Plant response rating, Crabgrass",[16]; [24],0
same,Crabgrass plant response rating,"[16]; Rate 62 g/ha, Postemergence",0
same,Crabgrass plant response rating,"[16]; Rate 125 g/ha, Postemergence",0
same,"Plant response rating, Crabgrass","[16]; Rate 125 g/ha, Preemergence",0
same,"Plant response rating, Crabgrass","[16]; Rate 250 g/ha, Postemergence",0
same,"Plant response rating, Crabgrass","[16]; Rate 250 g/ha, Preemergence",0
same,Rice plant response rating,rice (Oryza sativa); [25],0
same,Rice plant response rating,rice (Oryza sativa); [26],0
same,"Plant response rating, Rice",rice (Oryza sativa); [27],0
same,S. Flatsedge plant response rating,[17]; [25],0
same,S. Flatsedge plant response rating,[17]; [26],0
same,"Plant response rating, S. Flatsedge",[17]; [27],0
same,Ducksalad plant response rating,[18]; [25],0
same,Ducksalad plant response rating,[18]; [26],0
same,"Plant response rating, Ducksalad",[18]; [27],0
same,Barnyardgrass plant response rating,[19]; [25],0
same,Barnyardgrass plant response rating,[19]; [26],0
same,"Plant response rating, Barnyardgrass",[19]; [27],0
